Our source for the IC50 values is patent US20080306107A1, “Compounds” (AstraZeneca AB, priority 2004, published 2008).

As usually defined, the IC50 is the concentration that inhibits the measured activity by half.

The assay has as its target T1, hVR1 (Homo sapiens, UniProt Q8NER1).
T1 construct: expressed in transfected cells
As to the kind of experiment: hVR1 FLIPR (Fluorometric Image Plate Reader) screening assay, IC50 determination. Particulars: transfected CHO cells stably expressing hVR1; Fluo-4 calcium fluorescence; agonist 50 nM capsaicin or MES buffer pH 5.2. It counts as cell-based. As for the experimental part: 1. hVR1 FLIPR (Fluorometric Image Plate Reader) Screening Assay
Transfected CHO cells, stably expressing hVR1 (15,000 cells/well) are seeded in 50 ul media in a black clear bottom 384 plate (Greiner) and grown in a humidified incubator (37° C., 2% CO2), 24-30 hours prior to experiment.
Subsequently, the media is removed from the cell plate by inversion and 2 μM Fluo-4 is added using a multidrop (Labsystems). Following the 40 minutes dye incubation in the dark at 37° C. and 2% CO2, the extracellular dye present is washed away using an EMBLA (Scatron), leaving the cells in 40 ul of assay buffer (1×HBSS, 10 mM D-Glucose, 1 mM CaCl2, 10 mM HEPES, 10×7.5% NaHCO3 and 2.5 mM Probenecid).
FLIPR Assay —IC50 Determination Protocol
For IC50 determinations the fluorescence is read using FLIPR filter 1 (em […]). A cellular baseline recording is taken for 30 seconds, followed by a 20 μl addition of 10, titrated half-log concentrations of the test compound, yielding cellular concentration ranging from 3 μM to 0.1 nM. […] This consequently leading to a reduction in fluorescence signal and providing a reduced fluorescence reading, compared with no compound, buffer controls. Data is exported by the FLIPR program as a sum of fluorescence calculated under the curve upon the addition of capsaicin. […]

T1 sequence (Q8NER1 whole entry): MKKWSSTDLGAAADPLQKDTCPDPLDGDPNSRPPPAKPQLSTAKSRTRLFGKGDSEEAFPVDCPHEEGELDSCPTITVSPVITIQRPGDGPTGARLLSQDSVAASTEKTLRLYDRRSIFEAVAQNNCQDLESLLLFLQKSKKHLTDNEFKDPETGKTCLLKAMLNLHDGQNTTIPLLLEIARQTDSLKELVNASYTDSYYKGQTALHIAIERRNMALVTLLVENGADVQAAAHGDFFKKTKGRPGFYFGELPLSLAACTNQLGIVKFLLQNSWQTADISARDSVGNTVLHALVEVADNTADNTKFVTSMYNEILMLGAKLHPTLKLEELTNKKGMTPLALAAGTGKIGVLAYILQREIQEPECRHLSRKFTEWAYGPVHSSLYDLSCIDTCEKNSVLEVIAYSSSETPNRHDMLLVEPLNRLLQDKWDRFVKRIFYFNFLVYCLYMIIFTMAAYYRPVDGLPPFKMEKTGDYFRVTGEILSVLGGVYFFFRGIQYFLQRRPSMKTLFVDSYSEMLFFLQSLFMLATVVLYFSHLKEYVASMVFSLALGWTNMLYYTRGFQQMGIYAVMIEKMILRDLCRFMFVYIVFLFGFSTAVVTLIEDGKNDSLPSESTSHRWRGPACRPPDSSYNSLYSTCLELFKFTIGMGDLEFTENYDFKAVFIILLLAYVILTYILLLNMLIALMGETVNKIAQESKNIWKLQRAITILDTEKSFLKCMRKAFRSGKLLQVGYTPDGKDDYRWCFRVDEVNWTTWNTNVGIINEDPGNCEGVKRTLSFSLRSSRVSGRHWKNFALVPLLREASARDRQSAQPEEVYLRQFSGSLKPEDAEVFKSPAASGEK

Take `Cc1cc(C(F)(F)F)c2c(N)c(C(=O)NCCc3ccccc3C)sc2n1` [Compound 3, 3-amino-6-methyl-N-[2-(2-methylphenyl)ethyl]-4-(trifluoromethyl)thieno[2,3-b]pyridine-2-carboxamide]: the IC50 was 119 nM.

Take `Cc1cc(C(F)(F)F)c2c(N)c(C(=O)NCCc3ccccc3)sc2n1` [Compound 11, 3-amino-6-methyl-N-(2-phenylethyl)-4-(trifluoromethyl)thieno[2,3-b]pyridine-2-carboxamide]: the IC50 was 716 nM.
